Results taken from patent publication US7494993B2, “Amide derivatives of 7-amino-3-phenyl-dihydropyrimido[4,5-d]pyrimidinones, their manufacture and use as pharmaceutical agents” (Hoffmann-La Roche Inc., priority 2004, dated 2009).

Columns and labels:
[1] = target: T1, Src (p60^c-src, partially purified) (Homo sapiens, UniProt P12931); experiment: SRC-Inhibitor-Assay, time-resolved fluorescence kinase assay (Src); type: biochemical; details: ATP 5 μM; enzyme pre-incubated with inhibitor 15 min at 15° C.
T1 construct: purchased UBI, Upstate Biotech, Inc
T1 sequence (P12931 whole entry, species assumed): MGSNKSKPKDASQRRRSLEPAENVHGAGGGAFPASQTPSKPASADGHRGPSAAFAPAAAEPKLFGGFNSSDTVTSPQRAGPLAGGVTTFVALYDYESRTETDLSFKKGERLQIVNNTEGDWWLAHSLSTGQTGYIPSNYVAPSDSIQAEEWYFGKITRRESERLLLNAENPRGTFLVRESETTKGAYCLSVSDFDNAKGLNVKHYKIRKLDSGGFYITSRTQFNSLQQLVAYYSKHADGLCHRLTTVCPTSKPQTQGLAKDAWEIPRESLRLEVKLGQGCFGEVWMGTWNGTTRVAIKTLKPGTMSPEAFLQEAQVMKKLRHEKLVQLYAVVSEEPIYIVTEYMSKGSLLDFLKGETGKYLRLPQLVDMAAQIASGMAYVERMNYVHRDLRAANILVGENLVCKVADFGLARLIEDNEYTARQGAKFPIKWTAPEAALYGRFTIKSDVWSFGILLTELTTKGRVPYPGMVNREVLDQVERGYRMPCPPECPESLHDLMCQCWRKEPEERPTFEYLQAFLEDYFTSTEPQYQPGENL
Description: (§1) The activity of the compounds according to this invention as inhibitors for the src-family tyrosine kinases was shown by using the following assay. • SRC-Inhibitor-Assay Parameters: • Reaction mixture: • ATP 5 μM • Peptide (Ro+Ja133-Ro): 10 μM • Ja133-Ro 196 nM • Ro 9.8 μM • PT66 230 ng/ml • Assay buffer: 4 mM MgCl2 • 2 mM TCEP • 50 mM HEPES • 0.1% Tween 20 • pH 7.3 • Enzyme: 2.5 U/ml • Inhibitor: max. 25 μM • min. 0.42 nM
(§2) Material: • Eu-labelled phosphotyrosine antibody: for Lck Cisbio Mab PT66-K, • for Src EG&G Wallac PT66 Eu-W1024 (all commercially available). • Peptides: Ro: NH2-A-E-E-E-I-Y-G-E-F-E-A-K-K-K-K-CONH2, and • Ja133-Ro: Ja133-G-Aminocaprylic acid-A-E-E-E-I-Y-G-E-F-E-A-K-K-K-K-CONH2, wherein Ja133 is LightCycler-Red 640-N-hydroxy succinimide ester; • whereby both peptides were synthesized by an optimized solid phase peptide synthesis protocol (Merrifield, Fed. Proc. Fed. Amer. Soc. Exp. Biol. 21 (1962) 412) on a Zinsser SMP350 peptide synthesizer. Shortly, the peptide was assembled on 160 mg (22.8 μmol scale) of a Rink-Linker modified polystyrene solid phase by repeatedly conjugating an twenty fold excess of amino acids each protected by temporary piperidine labile Fmoc- and permanent acid labile tert-Bu-, BOC- and O-tert-Bu-groups depending on the side chain function. The substrate sequence AEEEIYGEFEAKKKK was N-terminal additionally mounted with the spacer amino acids Aminocaprylic acid and Glycin. After cleavage of the N-terminal temporary protecting group the still attached and protected peptide was labeled with a 1.5 fold amount of LightCycler-Red 640-N-hydroxy succinimide ester (purchased from Roche Diagnostics GmbH) and triethylamine. After 3 hrs. the resin was washed with Dimethylformamide and Isopropanol until the eluates of the blue resin got colourless. […] The substrate was finally isolated by a preparative reverse phase HPLC purification.
(§3) The purification yielded 12.2 mg RP-HPLC single peak pure blue material (lyophilisate). The identity was proven by MALDI mass spectroscopy [2720.0]. • Enzymes: Upstate Lck (p56^kk, active), Upstate Src (p60^c-src, partially purified) were purchased from UBI, Upstate Biotech, Inc.
(§4) Time-resolved Fluorescence Assay: Reader: Perkin Elmer, Wallac Viktor 1420-040 multilabel counter; Liquid handling system: Beckman Coulter, Biomek 2000.
(§5) ATP, Tween™ 20, 4-(2-hydroxyethyl)-1-piperazineethanesulfonic acid (HEPES) were purchased from Roche Molecular Biochemicals, MgCl2 and MnCl2 were purchased from Merck Eurolab, Tris(2-carboxyethyl)phosphine hydrochloride (TCEP) was purchased from Pierce, 384 Well low volume fluorescence plates was purchased from Falcon.
(§6) At first the enzyme is pre-incubated for 15 min. at 15° C. in aqueous solution with corresponding amounts of inhibitors according to this invention. Then the phosphorylation reaction is started by adding a reaction mixture, containing ATP, Peptide and PT66, and subsequent shaking. The proceeding of this reaction is immediately monitored using time resolved fluorescence spectroscopy in a suitable well plate reader.
(§7) The IC50-values can be obtained from the reaction rates by using a non-linear curve fit (XLfit software (ID Business Solution Ltd., Guilford, Surrey, UK))

Lck (p56^kk, active) = target: T2, Lck (p56^kk, active) (Homo sapiens, UniProt P06239); experiment: SRC-Inhibitor-Assay, time-resolved fluorescence kinase assay (Lck); type: biochemical; details: ATP 5 μM; enzyme pre-incubated with inhibitor 15 min at 15° C.
T2 construct: purchased UBI, Upstate Biotech, Inc
T2 sequence (P06239 whole entry, species assumed): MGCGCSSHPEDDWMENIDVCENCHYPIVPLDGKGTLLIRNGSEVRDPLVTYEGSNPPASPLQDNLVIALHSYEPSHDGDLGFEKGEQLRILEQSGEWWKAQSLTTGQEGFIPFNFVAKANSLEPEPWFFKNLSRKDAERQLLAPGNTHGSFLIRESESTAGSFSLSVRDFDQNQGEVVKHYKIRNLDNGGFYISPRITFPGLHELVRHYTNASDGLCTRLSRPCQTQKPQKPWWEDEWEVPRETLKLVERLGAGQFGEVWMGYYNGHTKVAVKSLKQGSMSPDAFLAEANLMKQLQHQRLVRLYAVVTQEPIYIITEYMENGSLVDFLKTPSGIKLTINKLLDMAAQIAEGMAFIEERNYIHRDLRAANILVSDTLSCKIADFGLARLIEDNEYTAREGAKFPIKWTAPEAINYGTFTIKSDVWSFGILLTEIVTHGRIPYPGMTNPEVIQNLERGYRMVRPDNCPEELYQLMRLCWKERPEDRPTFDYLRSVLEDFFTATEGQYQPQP
Description: as §1, §2, §3, §4, §5, §6, §7

| SMILES | IC50 [1] [nM] | IC50 (Lck (p56^kk, active)) [nM] |
| --- | --- | --- |
| CN1C(=O)N(c2cc(NC(=O)C=Cc3ccccc3)ccc2Cl)Cc2cnc(N)nc21 [Example 2-14, N-[3-(7-Amino-1-methyl-2-oxo-1,4-dihydro-2H-pyrimido[4,5-d]pyrimidin-3-yl)-4-chloro-phenyl]-3-phenyl-acrylamide] | 41 | 38.5 |
| CN1C(=O)N(c2cc(NC(=O)c3ccc(-c4ccccn4)cc3)ccc2Cl)Cc2cnc(N)nc21 [Example 2-22, N-[3-(7-Amino-1-methyl-2-oxo-1,4-dihydro-2H-pyrimido[4,5-d]pyrimidin-3-yl)-4-chloro-phenyl]-4-pyridin-2-yl-benzamide] | 50 to 150 | 50 to 150 |
| CN1C(=O)N(c2cc(NC(=O)c3ccc(-c4ccc[nH]4)cc3)ccc2Cl)Cc2cnc(N)nc21 [Example 2-24, N-[3-(7-Amino-1-methyl-2-oxo-1,4-dihydro-2H-pyrimido[4,5-d]pyrimidin-3-yl)-4-chloro-phenyl]-4-(1H-pyrrol-2-yl)-benzamide] | 50 to 150 | 50 to 150 |

Second part, the compound after the results:

| IC50 [1] [nM] | IC50 (Lck (p56^kk, active)) [nM] | SMILES |
| --- | --- | --- |
| 50 to 150 | 50 to 150 | CN1C(=O)N(c2cc(NC(=O)c3ccc(-c4ccccc4)cc3)ccc2Cl)Cc2cnc(N)nc21 [Example 1, Biphenyl-4-carboxylic acid[3-(7-amino-1-methyl-2-oxo-1,4-dihydro-2H-pyrimido[4,5-d]pyrimidin-3-yl)-4-chloro-phenyl]-amide] |
| 50 to 150 | 50 to 150 | CN1C(=O)N(c2cc(NC(=O)c3cccc(-c4ccccc4)c3)ccc2Cl)Cc2cnc(N)nc21 [Example 2-3, Biphenyl-3-carboxylic acid [3-(7-amino-1-methyl-2-oxo-1,4-dihydro-2H-pyrimido[4,5-d]pyrimidin-3-yl)-4-chloro-phenyl]-amide] |
| 73.5 | 168 | CN1C(=O)N(c2cc(NC(=O)c3ccc(N4CCOCC4)cc3)ccc2Cl)Cc2cnc(N)nc21 [Example 2-7, N-[3-(7-Amino-1-methyl-2-oxo-1,4-dihydro-2H-pyrimido[4,5-d]pyrimidin-3-yl)-4-chloro-phenyl]-4-morpholin-4-yl-benzamide] |
| 50 to 150 | 50 to 150 | CN1C(=O)N(c2cc(NC(=O)c3cccc4ccccc34)ccc2Cl)Cc2cnc(N)nc21 [Example 2-15, Naphthalene-1-carboxylic acid [3-(7-amino-1-methyl-2-oxo-1,4-dihydro-2H-pyrimido[4,5-d]pyrimidin-3-yl)-4-chloro-phenyl]-amide] |
